{"source": "patent US20130165368A1", "about": "“ANTIMICROBIAL COMPOUNDS” (priority 2010, published 2013)", "assay_type_in_all_cases": "cell-based", "key": {"Propionibacteria": {"system": "Propionibacteria", "experiment": "MIC with Propionibacteria (Table X)", "details": "48 h, 48 hours at 37° C., anaerobic", "description": "(§1) Further experiments have also been conducted to determine the MIC of a number of other compositions as follows. The experimental procedure followed is the same as that initially described at the beginning of this Examples and Data section of the specification, except where indicated below.\nThe results were obtained following incubation for 48 hours at 37° C. in anaerobic conditions."}, "yeasts": {"system": "yeasts", "experiment": "MIC with yeasts (Table XI)", "details": "48 h, 48 hours at 37° C., aerobic", "description": "as §1\nThe results were obtained following incubation for 48 hours at 37° C. in aerobic conditions."}, "[1]": {"system": "Respiratory Syncytial Virus (RSV), strain A2", "experiment": "Antiviral: cytopathic effect of RSV on A549 cells", "details": "for Cytopathic effect (cpe): added 1 hour after virus absorption, 96 hours at 33° C., versus untreated lane", "description": "(§2) A549 (ATCC CCL-185) cells were plated onto a 96 well and allowed to attach overnight, the wells were washed, and 100 ul of DMEM (Gibco) with 2% FCS was added. To the first column of the data set below, 100 μl of neat virus was added. The virus used was Respiratory Syncytial Virus (RSV), strain A2, a common laboratory strain which retains the ability to infect animal models.\n(§3) A two serial dilution was performed (up to column 10), lanes 11+12 were uninfected controls, but relevant lanes contained the appropriate concentration of Laureth 4, laureth 4 was added 1 hour after virus absorption. The alkoxylated alkanol compounds used in the experiment were ‘high purity’, i.e. having a GC purity of at least 97%.\n(§4) After 96 hours incubation at 33° C. the medium was removed, cell washed with PBS and stained with methylene blue (Gibco). Cytopathic effect (cpe) was noted visually and wells marked either as positive or negative when view under a light microscope at 4× magnification."}, "[2]": {"system": "A549 (ATCC CCL-185) cells", "description": "as §2, §3, §4"}}}
{"compound": "CCCCCCCCCCCCOCCOCCOCCOCCO", "note": "[L4, Tetraethylene Glycol Monododecyl Ether]", "values": [{"measurement": "MIC", "setting": "Propionibacteria; Propionibacterium granulosum 354039G", "value": 440, "unit": "µM"}, {"measurement": "MIC", "setting": "Propionibacteria; Propionibacterium granulosum 354043J", "value": 440, "unit": "µM"}, {"measurement": "MIC", "setting": "Propionibacteria; Propionibacterium granulosum 354044V", "value": 880, "unit": "µM"}, {"measurement": "MIC", "setting": "Propionibacteria; Propionibacterium species 387327Y", "value": 440, "unit": "µM"}, {"measurement": "MIC", "setting": "Propionibacteria; certain of the Propionibacteria tested", "value": "< 880", "unit": "µM"}, {"measurement": "MIC", "setting": "Propionibacteria; Cutibacterium acnes, Propionibacterium acnes 737", "value": 880, "unit": "µM"}, {"measurement": "MIC", "setting": "Propionibacteria; Cutibacterium avidum, Propionibacterium avidum 340090P", "value": 880, "unit": "µM"}, {"measurement": "MIC", "setting": "Propionibacteria; Cutibacterium avidum, Propionibacterium avidum 340093T", "value": 880, "unit": "µM"}, {"measurement": "MIC", "setting": "Propionibacteria; Cutibacterium avidum, Propionibacterium avidum 340097V", "value": 880, "unit": "µM"}, {"measurement": "MIC", "setting": "Propionibacteria; Cutibacterium avidum, Propionibacterium avidum 354020J", "value": 880, "unit": "µM"}, {"measurement": "MIC", "setting": "Propionibacteria; Cutibacterium avidum, Propionibacterium avidum 354025L", "value": 880, "unit": "µM"}, {"measurement": "MIC", "setting": "yeasts; Candida guilliemondii 380022E", "value": "> 220", "unit": "µM"}, {"measurement": "MIC", "setting": "yeasts; Candida lustaniae 458891B", "value": "> 220", "unit": "µM"}, {"measurement": "MIC", "setting": "yeasts; all of the yeasts tested", "value": "< 880", "unit": "µM"}, {"measurement": "MIC", "setting": "yeasts; Candida albicans, Candida albicans 383107", "value": "> 220", "unit": "µM"}, {"measurement": "MIC", "setting": "yeasts; Candida albicans, Candida albicans 384403C", "value": 220, "unit": "µM"}, {"measurement": "MIC", "setting": "yeasts; Candida albicans, Candida albicans 457932F", "value": "> 220", "unit": "µM"}, {"measurement": "MIC", "setting": "yeasts; Candida albicans, Candida albicans 464644V", "value": 220, "unit": "µM"}, {"measurement": "MIC", "setting": "yeasts; Candida albicans, Candida albicans 540668D", "value": 110, "unit": "µM"}, {"measurement": "MIC", "setting": "yeasts; Candida albicans, Candida albicans 540992V", "value": 220, "unit": "µM"}, {"measurement": "MIC", "setting": "yeasts; Candida albicans, Candida albicans 561251J", "value": "> 220", "unit": "µM"}, {"measurement": "MIC", "setting": "yeasts; Candida dubliniensis, Candida dubliniensis 383086P", "value": 110, "unit": "µM"}, {"measurement": "MIC", "setting": "yeasts; Candida tropicalis, Candida tropicalis 470273M", "value": "> 220", "unit": "µM"}, {"measurement": "MIC", "setting": "yeasts; Kluyveromyces marxianus, Candida kefyr 337838T", "value": 55, "unit": "µM"}, {"measurement": "MIC", "setting": "yeasts; Lodderomyces parapsilosis, Candida parapsilosis 381611V", "value": "> 220", "unit": "µM"}, {"measurement": "MIC", "setting": "yeasts; Lodderomyces parapsilosis, Candida parapsilosis 547133B", "value": "> 220", "unit": "µM"}, {"measurement": "MIC", "setting": "yeasts; Nakaseomyces glabratus, Candida glabrata 437713D", "value": "> 220", "unit": "µM"}, {"measurement": "MIC", "setting": "yeasts; Nakaseomyces glabratus, Candida glabrata 882870Q", "value": "> 220", "unit": "µM"}, {"measurement": "MIC", "setting": "yeasts; Pichia kudriavzevii, Candida krusei 378573D", "value": "> 220", "unit": "µM"}, {"measurement": "Cytopathic effect (cpe)", "setting": "[1]; 0.01 mM", "value": "significantly reduced"}, {"measurement": "Cytopathic effect (cpe)", "setting": "[1]; 0.1 mM", "value": "significantly reduced"}, {"measurement": "cytopathic effect of the virus on the cells (overall)", "setting": "[1]; RSV A2 on A549 cells", "value": "can alleviate the cytopathic effect"}, {"measurement": "state of treated, uninfected cells", "setting": "[2]", "value": "healthy and showed little cellular apathy"}]}
